Where “and” joins values, the source holds several entries; their conditions need not be identical. Identical values can stand only once. Entries after “also recorded” stand apart in the source; their conditions may differ. Like-named read-outs stand apart in the source and are kept apart here. Marks after values point to notes of the source that are not given here. Blank lines part the entries; values can stand above or below the compound they belong to.
Key:
[1] = cited from earlier work
Adverse event monitoring = format: in vivo, NSCLC patients
[2] = format: in vivo, NSCLC patients; conditions: for AUC / Cmax: geomean; for Cmax: Cmax (CV %); for Cmax RD, PPI with milk vs. PPI with water (95% CI): n = 15
[3] = cited from earlier work; remark: listed apart in the source
[4] = Milk [n = 30], without and with esomeprazole
[5] = Water [n = 29], without and with esomeprazole

- Tmax (IQR), median ([2]; No PPI with milk [n = 14]): 2.50 (2.00–3.00) hours
- Interpatient variability (CV) in AUC24 ([2]; PPI (esomeprazole), with milk): 38%
- Interpatient variability (CV) in AUC24 ([2]; PPI (esomeprazole), with water): 61%
- Increase in Tmax with milk vs water ([2]; both study arms, non-significant): 0.5 h
- Decrease in erlotinib AUC24 by esomeprazole ([2]; esomeprazole 40 mg once daily 3 h prior to erlotinib vs no esomeprazole, n = 9): 47% and ~50%
- AUC ([2]; human, plasma, oral, AUC24 (CV %), No PPI [n = 9], patients in both study arms, corrected for coadministration with milk): 20.1 µg·h/mL
- AUC ([2]; human, plasma, oral, AUC24 (CV %), PPI [n = 9], patients in both study arms, corrected for coadministration with milk): 10.6 µg·h/mL
- AUC ([2]; human, plasma, oral, AUC24 (CV%), No PPI with milk [n = 14]): 22.4 µg·h/mL
- Cmax ([2]; human, plasma, oral, PPI [n = 9], patients in both study arms, corrected for coadministration with milk): 0.75 µg/mL
- Cmax ([2]; human, plasma, oral, PPI with milk [n = 15]): 0.82 µg/mL
- Tmax ([2]; human, plasma, po): 2.52 h
- AUC ([2]; human, plasma, po, AUC24 (CV%), No PPI with water [n = 14]): 23 µg·h/mL
- Cmax ([2]; human, plasma, po, No PPI with water [n = 14]): 1.85 µg/mL
- Cmax ([2]; human, plasma, po, PPI with water [n = 15]): 0.81 µg/mL
- Cmax RD, no-PPI with milk vs. no-PPI with water (95% CI) ([2]; n = 14): 6%
- Cmax RD, PPI with milk vs. PPI with water (95% CI) [2]: 1%
- Cmax RD, PPI with milk vs. PPI with water (95% CI) ([2]; listed as Erlotinib): 1.5% (− 12 to 17%)
- Interpatient variability (CV) in AUC24 ([2]; no PPI, with milk): 35%
- Interpatient variability (CV) in AUC24 ([2]; no PPI, with water): 37%
- Decrease in AUC24 when administered with milk compared with water ([2]; non-PPI patients, non-significant): 3%
SMILES: C#Cc1cccc(Nc2ncnc3cc(OCCOC)c(OCCOC)cc23)c1 [erlotinib]
- Increase in exposure ([1]; administered concomitantly with a high-fat meal ref 3): 33–66%
- AUC increase ([1]; high-fat meal taken 2 h after erlotinib administration ref 22): 33%
- Increase in AUC ([1]; high-fat meal, food and drug taken concomitantly ref 23): 66%
- All events, Grade 1–2 (Adverse event monitoring; Baseline [n = 30]): 29 (97) n (%)
- Alopecia, Grade 1–2 (Adverse event monitoring; Baseline [n = 30]): 12 (40) n (%)
- Constipation, Grade 1–2 (Adverse event monitoring; Baseline [n = 30]): 5 (17) n (%)
- Diarrhea, Grade 1–2 (Adverse event monitoring; Baseline [n = 30]): 6 (20) n (%)
- Fatigue, Grade 1–2 (Adverse event monitoring; Baseline [n = 30]): 10 (33) n (%)
- Nausea, Grade 1–2 (Adverse event monitoring; Baseline [n = 30]): 1 (3) n (%)
- Pain, Grade 1–2 (Adverse event monitoring; Baseline [n = 30]): 5 (17) n (%)
- Rash, Grade 1–2 (Adverse event monitoring; Baseline [n = 30]): 23 (77) n (%)
- Serious adverse event, Grade 3 (Adverse event monitoring; Baseline [n = 30], spinal fracture, not related to study procedures): 1 (3%)^a n (%)
- All events, Grade 1–2 (Adverse event monitoring; [4]): 28 (93) n (%)
- All events, Grade 3 (Adverse event monitoring; [4]): 2 (6) n (%)
- Alopecia, Grade 1–2 (Adverse event monitoring; [4]): 11 (37) n (%)
- Constipation, Grade 1–2 (Adverse event monitoring; [4]): 3 (10) n (%)
- Diarrhea, Grade 1–2 (Adverse event monitoring; [4]): 3 (10) n (%)
- Fatigue, Grade 1–2 (Adverse event monitoring; [4]): 6 (20) n (%)
- Nausea, Grade 1–2 (Adverse event monitoring; [4]): 3 (10) n (%)
- Nausea, Grade 3 (Adverse event monitoring; [4]): 1 (3) n (%)
- Pain, Grade 1–2 (Adverse event monitoring; [4]): 9 (30) n (%)
- Rash, Grade 1–2 (Adverse event monitoring; [4]): 20 (67) n (%)
- Rash, Grade 3 (Adverse event monitoring; [4]): 1 (3) n (%)
- All events, Grade 1–2 (Adverse event monitoring; [5]): 28 (97) n (%)
- Alopecia, Grade 1–2 (Adverse event monitoring; [5]): 11 (38) n (%)
- Constipation, Grade 1–2 (Adverse event monitoring; [5]): 1 (3) n (%)
- Diarrhea, Grade 1–2 (Adverse event monitoring; [5]): 3 (10) n (%)
- Fatigue, Grade 1–2 (Adverse event monitoring; [5]): 10 (34) n (%)
- Nausea, Grade 1–2 (Adverse event monitoring; [5]): 3 (10) n (%)
- Pain, Grade 1–2 (Adverse event monitoring; [5]): 7 (24) n (%)
- Rash, Grade 1–2 (Adverse event monitoring; [5]): 18 (62) n (%)
- Difference in toxicities between milk and water periods (Adverse event monitoring; independent of study arm (with and without PPI)): No differences in toxicities were observed; also recorded: Patient-reported toxicity was equal between the milk and water groups, with and without proton pump inhibitors. Hence, cow’s milk can be used as a safe alternative to water for the administration of erlotinib. Concomitant treatment with esomeprazole should be avoided if possible
- Patient-reported adverse events during study compared with baseline (Adverse event monitoring; overall): did not increase compared with baseline

SMILES: CS(=O)(=O)CCNCc1ccc(-c2ccc3ncnc(Nc4ccc(OCc5cccc(F)c5)c(Cl)c4)c3c2)o1 [lapatinib]
- AUC increase ([1]; with a high-fat meal ref 3): up to 325%
- AUC increase ([1]; with a low-fat meal ref 3): ≤ 200%

SMILES: Cc1cn(-c2cc(NC(=O)c3ccc(C)c(Nc4nccc(-c5cccnc5)n4)c3)cc(C(F)(F)F)c2)cn1 [nilotinib]
- Safety of coadministration with yoghurt [3]: considered safe
